Data: patent US20200071351A1, “TACCALONOLIDE MICROTUBULE STABILIZERS” (THE BOARD OF REGENTS OF THE UNIVERSITY OF TEXAS SYSTEM, priority 2016, published 2020)
Where two headings read alike, the source gives them in different places.

Key:
HeLa cells [1] = assay: Inhibition of cellular proliferation, SRB assay, HeLa cells; format: cell-based; conditions: for activity at concentrations as high as 30,000 nM: up to 30,000 nM
Description: The ability of the compounds to initiate cytotoxicity was also determined. […] The determination of IC50 values was performed on taccalonolide material after NMR analysis and subsequent lyophilization. Ethanol or DMSO was used as the vehicle for all cellular studies.
The antiproliferative potencies of the taccalonolides were evaluated in HeLa cells using the SRB assay.

HeLa cells [2] = assay: Mitotic spindle structures, indirect immunofluorescence; format: cell-based; conditions: 18 h, 125 nM AF, 200 nM AI, 35 nM AJ
Description: Cellular microtubules in interphase and mitotic HeLa cells were visualized using indirect immunofluorescence techniques as previously described (Tinley et al., 2003). […] Representative images of interphase and mitotic cells were acquired using a Nikon Eclipse 80i fluorescence microscope and compiled using NIS Elements AR 3.0 software.
The effects of the taccalonolides on mitotic spindle structures were evaluated to test whether they caused mitotic spindle defects leading to cell cycle arrest. β-tubulin and DNA were visualized in HeLa cells by indirect immunofluorescence and DAPI staining, respectively. […] These mitotic cells contained multiple abnormal mitotic spindles, which is another common effect of microtubule stabilizing agents (FIGS. 4A-D).
The microtubule structures in mitotic cells were visualized by indirect immunofluorescence using a β-tubulin antibody.

[3] = system: βIII-tubulin expressing HeLa cell line (WTβIII); assay: Inhibition of cellular proliferation, SRB assay, βIII-tubulin expressing WTβIII cell line; format: cell-based
Description: (§1) The HeLa cervical cancer cell line, the SK-OV-3 ovarian cancer cell line and the PC-3 prostate cancer cell line were obtained from American Type Tissue Culture Collection (Manassas, Va.) and grown in Basal Media Eagle (BME) or RPMI 1640 medium (Invitrogen; Carlsbad, Calif.) supplemented with 10% fetal bovine serum (Hyclone; Logan, Utah) and 50 μg/ml gentamicin sulfate (Invitrogen). The P-glycoprotein expressing SK-OV-3/MDR-1-6/6 cell line and the βIII-tubulin expressing WTβIII cell line have been described previously (Risinger et al., 2008).
(§2) The antiproliferative and cytotoxic effects of the taccalonolides were evaluated using the SRB assay (Skehan et al., 1990, Boyd and Paull, 1995) as previously described (Tinley et al., 2003). The concentration of drug that causes 50% inhibition of cellular proliferation (IC50) was calculated from the linear portion of the log dose response curve. The ability of the compounds to initiate cytotoxicity was also determined. […] The determination of IC50 values was performed on taccalonolide material after NMR analysis and subsequent lyophilization. Ethanol or DMSO was used as the vehicle for all cellular studies.
(§3) The ability of taccalonolides AF and AJ to inhibit the proliferation of both drug sensitive cancer cells, including ovarian cancer cells (SK-OV-3), cervical cancer cells (HeLa) and prostate cancer cells (PC-3) and drug resistant cells, including the P-glycoprotein expressing SK-OV-3 line (SK-OV-3/MDR-1-6/6) and the βIII-tubulin expressing HeLa cell line (WTβIII) was determined.
(§4) Referring to Table 3, the effect of the taccalonolides in drug resistant and sensitive cells is shown. IC50 values for inhibition of cellular proliferation for taccalonolides AF and AJ were determined in drug sensitive and drug resistant cell lines. The HeLa cell pair evaluated the effect of βIII tubulin expression on cell sensitivity and the ability of compounds to overcome drug resistance mediated by βIII tubulin expression. The SK-OV-3 cell line pair was used to evaluate the effects of the expression of P-glycoprotein (Pgp) on cell sensitivity and the ability of compounds to overcome Pgp-mediated drug resistence. The effects of the taccalonolides on the drug senstive prostate cancer cell line PC-3 are also presented. IC50 values were calculated from an average of 3-4 independent experiments, each performed in triplicate.

[4] = system: purified porcine brain tubulin; assay: Tubulin polymerization followed turbidimetrically; format: biochemical; conditions: 10 μM compound, 2 mg/ml tubulin, 10% glycerol, 1 mM GTP, 37° C., OD340
Description: The ability of these new potent taccalonolides to interact directly with tubulin was assessed by incubating purified porcine brain tubulin at a concentration of 2 mg/ml in the presence of 10% glycerol and 1 mM GTP, which allows for a baseline level of tubulin polymerization that can be followed turbidimetrically (FIG. 5).
Tubulin polymerization was monitored by turbidity measurement at OD340.

[5] = system: PC-3 prostate cancer cell line; assay: Inhibition of cellular proliferation, SRB assay, PC-3 cells; format: cell-based; conditions: average of 3-4 independent experiments
Description: as §1, §2, §3
(§5) Referring to Table 3, the effect of the taccalonolides in drug resistant and sensitive cells is shown. IC50 values for inhibition of cellular proliferation for taccalonolides AF and AJ were determined in drug sensitive and drug resistant cell lines. The HeLa cell pair evaluated the effect of βIII tubulin expression on cell sensitivity and the ability of compounds to overcome drug resistance mediated by βIII tubulin expression. […] IC50 values were calculated from an average of 3-4 independent experiments, each performed in triplicate.

[6] = system: SK-OV-3/MDR-1-6/6 cell line; assay: Inhibition of cellular proliferation, SRB assay, P-glycoprotein expressing SK-OV-3/MDR-1-6/6 cells; format: cell-based
Description: as §1, §2, §3, §4

[7] = system: SK-OV-3 ovarian cancer cell line; assay: Inhibition of cellular proliferation, SRB assay, SK-OV-3 cells; format: cell-based; conditions: average of 3-4 independent experiments
Description: as §1, §2, §3, §5

[8] = system: human mammary epithelial cells; assay: Cytotoxicity to normal cells; format: cell-based; conditions: concentrations 5 to 100-fold the IC50 values in the HeLa cancer cell line
[9] = HeLa cells, SRB assay, parent taccalonolide, read-out: IC50
[10] = Homo sapiens, HeLa, HeLa cells, SRB assay, parent taccalonolide, read-out: IC50

**Q.** For CC(=O)O[C@H]1C[C@H]2[C@H]([C@@H]3[C@@H](O)[C@@H]4[C@H]([C@H](C)C=C5OC(=O)[C@@](C)(O)[C@@]54C)[C@]31C)[C@@H](O)C(=O)[C@H]1C[C@@H]3O[C@@H]3[C@H](OC(=O)CC(C)C)[C@@]12C [Taccalonolide AI], which IC50 (HeLa cells [1]; [9]) is on record?
**A.** 47 nM

**Q.** And the “effect on mitotic spindle structures” value (HeLa cells [2])?
**A.** mitotic arrest of cells with multiple abnormal mitotic spindles

**Q.** CC(=O)O[C@H]1[C@H]2[C@H]([C@@H]3[C@@H](O)[C@@H]4[C@H]([C@H](C)[C@@H]5O[C@@]56OC(=O)[C@@](C)(O)[C@]46C)[C@@]3(C)[C@H]1OC(C)=O)[C@@H](O)C(=O)[C@H]1C[C@@H]3O[C@@H]3[C@H](OC(C)=O)[C@]21C [Taccalonolide AJ] was tested. Which “increase in potency as compared to the parent taccalonolide on C22-C23 epoxidation” value (HeLa cells [1]; HeLa IC50 ratio, parent/epoxide) did it give?
**A.** 743 fold

**Q.** And the IC50 (HeLa cells [1]; HeLa cells, SRB assay, read-out: IC50)?
**A.** 4.3 nM

**Q.** And the IC50 (HeLa cells [1]; HeLa, average of 3-4 independent experiments, read-out: IC50 for inhibition of cellular proliferation, HeLa)?
**A.** 6.6 ± 0.3 nM

**Q.** What about the “effect on mitotic spindle structures” value (HeLa cells [2]) of the same compound?
**A.** mitotic arrest of cells with multiple abnormal mitotic spindles

**Q.** And the “relative resistance (Rr)” value ([3]; IC50 WTβIII divided by IC50 HeLa)?
**A.** (1.7)

**Q.** What about the IC50 ([3]; WTβIII, average of 3-4 independent experiments) of the same compound?
**A.** 11.1 ± 0.6 nM

**Q.** And the “rate and extent of tubulin polymerization” value [4]?
**A.** dramatically increased

**Q.** And the IC50 [5]?
**A.** 25.1 ± 4 nM

**Q.** And the “relative resistance (Rr)” value ([6]; IC50 SK-OV-3/MDR-1-6/6 divided by IC50 SK-OV-3)?
**A.** (7.8)

**Q.** What about the IC50 ([6]; SK-OV-3/MDR-1-6/6, average of 3-4 independent experiments) of the same compound?
**A.** 126 ± 12.8 nM

**Q.** What about the IC50 [7] of the same compound?
**A.** 16.3 ± 0.8 nM

**Q.** What about the “cytotoxicity of normal cells” value [8] of the same compound?
**A.** No cytotoxicity

**Q.** Which IC50 (HeLa cells [1]; [10]) does the source give for CC(=O)O[C@@H]1[C@H]2[C@@H]3[C@@H](O)C(=O)[C@H]4C[C@@H]5O[C@@H]5[C@H](OC(C)=O)[C@]4(C)[C@H]3C[C@H](OC(C)=O)[C@]2(C)[C@@H]2[C@@H]1[C@]1(C)C(=C[C@H]2C)OC(=O)[C@@]1(C)O [Taccalonolide E, reference compound] here?
**A.** 39500 nM

**Q.** With CC(=O)O[C@H]1[C@@H]2[C@H]([C@H](C)C=C3OC(=O)[C@@](C)(O)[C@@]32C)[C@]2(C)[C@@H]1C1=C(O)C(=O)[C@H]3C[C@@H]4O[C@@H]4[C@H](OC(C)=O)[C@]3(C)[C@H]1[C@H](OC(C)=O)[C@@H]2OC(C)=O [Taccalonolide H2] as the compound, how does the “more potent than taccalonolide A” value (HeLa cells [1]; HeLa IC50 ratio) read?
**A.** 7.4 fold

**Q.** What about the IC50 (HeLa cells [1]; [9]) of the same compound?
**A.** 730 nM

**Q.** How did the IC50 (HeLa cells [1]; [10]) turn out when CC(=O)O[C@H]1[C@H]2[C@@H](C(=O)[C@H](O)[C@H]3C[C@@H]4O[C@@H]4[C@H](OC(C)=O)[C@]23C)[C@@H]2[C@@H](O)[C@@H]3[C@H]([C@H](C)C=C4OC(=O)[C@@](C)(O)[C@@]43C)[C@@]2(C)[C@H]1OC(C)=O [Taccalonolide I, reference compound] was run?
**A.** > 10000 nM

**Q.** Which IC50 (HeLa cells [1]; [10]) does the source give for CC(=O)O[C@H]1C[C@H]2[C@H]([C@@H]3[C@@H](O)[C@@H]4[C@H]([C@H](C)C=C5OC(=O)[C@@](C)(O)[C@@]54C)[C@]31C)[C@@H](O)C(=O)[C@H]1C[C@@H]3O[C@@H]3[C@H](OC(C)=O)[C@@]12C [Taccalonolide N, reference compound] here?
**A.** 8500 nM

**Q.** Which IC50 (HeLa cells [1]; [10]) does the source give for CC(=O)O[C@@H]1[C@H]2[C@@H]3[C@@H](OC(C)=O)C(=O)[C@@]4(O)C[C@@H]5O[C@@H]5[C@H](OC(C)=O)[C@]4(C)[C@H]3C[C@H](OC(C)=O)[C@]2(C)[C@@H]2[C@@H]1[C@]1(C)C(=C[C@H]2C)OC(=O)[C@@]1(C)O [Taccalonolide R, reference compound] here?
**A.** 13100 nM

**Q.** What about the IC50 (HeLa cells [1]; Homo sapiens, HeLa, read-out: IC50) of the same compound?
**A.** 13000 nM

**Q.** For CC(=O)O[C@@H]1[C@H]2[C@@H]3[C@@H](O)C(=O)[C@H]4C[C@@H]5O[C@@H]5[C@H](OC(=O)C(C)C)[C@]4(C)[C@H]3C[C@H](OC(C)=O)[C@]2(C)[C@@H]2[C@@H]1[C@]1(C)C(=C[C@H]2C)OC(=O)[C@@]1(C)O [Taccalonolide S, reference compound], which IC50 (HeLa cells [1]; [10]) is on record?
**A.** 9 nM

**Q.** For CC(=O)O[C@@H]1[C@H]2[C@@H]3[C@@H](OC(C)=O)C(=O)[C@@]4(O)C[C@@H]5O[C@@H]5[C@H](OC(=O)CC(C)C)[C@]4(C)[C@H]3C[C@H](OC(C)=O)[C@]2(C)[C@@H]2[C@@H]1[C@]1(C)C(=C[C@H]2C)OC(=O)[C@@]1(C)O [Taccalonolide T, reference compound], which IC50 (HeLa cells [1]; [10]) is on record?
**A.** 335 nM

**Q.** With Taccalonolide AG as the compound, how does the IC50 (HeLa cells [1]; [9]) read?
**A.** 32 nM

**Q.** How did the IC50 (HeLa cells [1]; [9]) turn out when Taccalonolide AH was run?
**A.** 158 nM

**Q.** Which IC50 (HeLa cells [1]; [9]) does the source give for Taccalonolide AL here?
**A.** 18000 nM

**Q.** Taccalonolide AP was tested. Which IC50 (HeLa cells [1]; [9]) did it give?
**A.** > 30000 nM

**Q.** Which results are given for Taccalonolide AQ?
**A.** IC50 (HeLa cells [1]; [9]): > 30000 nM; activity at concentrations as high as 30,000 nM (HeLa cells [1]; HeLa cells): little to no activity

**Q.** Which results are given for Taccalonolide AR?
**A.** IC50 (HeLa cells [1]; [9]): > 30000 nM; activity at concentrations as high as 30,000 nM (HeLa cells [1]; HeLa cells): little to no activity

**Q.** Taccalonolide AS was tested. Which IC50 (HeLa cells [1]; [9]) did it give?
**A.** > 10000 nM

**Q.** And the “activity at concentrations as high as 30,000 nM” value (HeLa cells [1]; HeLa cells)?
**A.** little to no activity
